Assay results as given in patent publication US6071884A, “Pharmaceutical compositions and therapeutic methods” (Kirin Beer Kabushiki Kaisha, priority 1992, dated 2000).

Key:
[1] = test system: blood platelets; assay: Thrombocytopenia-inhibiting effect in X-ray-irradiated mice; type: in vivo, mouse (BDF1); conditions: 10 days after 5 Gy X-ray; 0.1 mg/kg i.v. within 2 h; mean ± SD; vehicle per series 10.3, 6.8, 6.7; non-treatment 68.2, 96.9, 73.0
Description: Pharmacological Test 5: Thromboclytopenia-Inhibiting Effect
The thrombocytopenia-inhibiting effect of each sample upon an X-ray-irradiated mouser which is one of models with a decreased number of blood platelets was examined.
An experiment was carried out by using 6 week old female BDF1 mice purchased from Japan SLC Co., Ltd., with 6 mice made one group.
5 Gy of X ray was irradiated to the entire body of the mice by a Hitachi X-ray irradiator CMBR-1520R). Within 2 hours after the irradiation, each sample was administered to the caudal vein of the mice at an amount of 0.1 mg/kg.
After 10 days, blood was collected from the fundus vein of the mice, and the number of blood platelets was measured by a sequential multi-channel hemocytometer E-2500/cs (Toa Iyo Denshi Kabushiki Kaisha). The number of blood platelets of the non-treated group, that of the medium-administered group, and that of the sample-administered group are shown in Table 5.

[2] = Life-span-increasing effect on irradiation of a lethal dose of radiation; type: in vivo, mouse (BDF1); conditions: 10 mice/group, 9 Gy X-ray, 0.1 mg/kg i.v. days 0, 4, 8
Description: Pharmacological Test 4: Life-Span-Increasing Effect on Irradiation of a Lethal Dose of Radiation
An experiment was carried out by using 6 week old female BDF1 mice purchased from Japan SLC Co., Ltd., with 10 mice made one group.
The entire bodies of the entire body of the mice were irradiated with 9 Gy of X-rays by using a Hitachi X-ray irradiator (MBR-1520R), and the day on which the X-ray was irradiated was referred to as "day 0".

[3] = test system: blood platelets; assay: Blood-platelet-increasing effect upon normal mouse; type: in vivo, mouse (BDF1); conditions: normal mice; 6 days after 0.1 mg/kg i.v.; mean ± SD; vehicle per series 58.2, 63.0, 71.1
Description: Pharmacological Test 6: Blood-Platelet-Increasing Effect upon Mouse
An experiment was carried out by using 6 week old female BDF1 mice purchased from Japan SLC Co., Ltd., with 5 mice made one group.
Each sample was administered to the caudal vein of the mice at a dose of 0.1 mg/kg. After 6 days, blood was collected from the fundus vein of the mice, and the number of blood platelets was measured by a sequential multi-channel hemocytometer E-2500/cs (Toa Iyo Denshi Kabushiki Kaisha). The number of blood platelets of the vehicle-administered group, and that of the sample-administered group are shown in Table 6.

[4] = test system: mononuclear cell fraction of human umbilical cord blood; assay: Proliferation-stimulating effect on mononuclear cell fraction of human umbilical cord blood (3H-TdR uptake); type: cell-based; conditions: 96 h, percentage of control, 4 days; for activity at 0.1 µg/mL: 10^-1 μg/ml; for activity at 0.01 µg/mL: 10^-2 μg/ml; for activity at 0.001 µg/mL: 10^-3 μg/ml
Excerpt: Pharmacological Test 3: Proliferation-Stimulating Effect on Mononuclear Cell Fraction of Human Umbilical Cord Blood
It is extremely difficult to obtain human marrow cells. In addition, human umbilical cord blood contains stem cells (Nakahata, T. & Ogwa, M., J. Clin. Inveet. 70, 1324-1328 (1982)), so that it can be a good source of hematopoietic stem/progenitor cell supply (H. E. Broxneyer et al, Proc. Natl. Acad. Sci. USA, 86, 3828-3832 (1989)). For these reasons, the effect on human was examined by using, instead of human marrow cells, human umbilical cord blood.
To human umbilical cord blood was added an equal amount of RPMI 1640. This was placed on a Lymphoprep and centrifugal. The mononuclear cell fraction (MNF) thus obtained was used in the following experiment.
The concentration of the MNF was adjusted to 1×10^6 cells/ml by using an RPMI 1640 added with 10% auto-blood plasma as a culture medium. 10 μl/well of a sample with a predetermined concentration and 100 μl/well of the above-prepared MNF were placed on a round-bottomed 96 well plate and incubated under the conditions of 37° C. and 5% CO2 for 4 days. Thereafter, 0.5 μCi/well of ^3 H-TdR was added. After 8 hour incubation, the cells were harvested, and the amount of the 3H-TdR taken in the nuclei was measured by a liquid scintillation counter.

[5] = test system: marrow cells (mononuclear cell fraction); assay: Proliferation-stimulating effect on marrow cell of mouse (3H-TdR uptake); type: cell-based, mouse (BALB/c); conditions: percentage of control, 72 h; for activity at 0.1 µg/mL: 10^-1 μg/ml; for activity at 0.01 µg/mL: 10^-2 μg/ml; for activity at 0.001 µg/mL: 10^-3 μg/ml; for activity at 1 µg/mL: 10^0 μg/ml
Description: Pharmacological Test 1: Proliferation-Stimulating Effect on Marrow Cell of Mouse
Marrow cells were prepared from the thigh bone of a 7 week old female BALB/c mouse purchased from Japan SLC Co., Ltd., and a mononuclear cell fraction (MNF) obtained by fractionation using a lympholyte-M (Cedar Lane, Ontario, Canada) was used in the following experiment.
The concentration of the MNF was adjusted to 1.5×10^6 cells/ml by using 10% FCS RPMI 1640 (Nissui Pharmaceutical Co., Ltd., Tokyo, Japan) as a culture medium. 10 μl/well of a sample with a predetermined concentration and 100 μl/well of the above-prepared MNF were placed on a round-bottomed 96 well plate, and incubated under the conditions of 37° C. and 5% CO2 for 72 hours. Thereafter, 0.5 μCi/well of ^3 H-thymidine (^3 H-TDR) was added. After 8 hour incubation, the cells were harvested, and the amount of the 3H-TdR taken in the nuclei was measured by a liquid scintillation counter.

[6] = day 10, controls per series 10, 10, 10, 10, 10, 8
[7] = day 15, controls per series 8, 9, 5, 5, 7, 1
[8] = day 20, controls per series 4, 5, 1, 2, 3, 0
[9] = day 25, controls per series 3, 3, 0, 0, 2, 0
[10] = day 30, controls per series 1, 1, 0, 0, 0, 0

SMILES | Number of Blood Platelets [1] | Number of Surviving Mice [2, 6] [mice] | Number of Surviving Mice [2, 7] [mice] | Number of Surviving Mice [2, 8] [mice] | Number of Surviving Mice [2, 9] [mice] | Number of Surviving Mice [2, 10] [mice] | Number of Surviving Mice ([2]; day 35, all controls 0) [mice] | Number of Surviving Mice ([2]; day 40, all controls 0) [mice] | Number of Blood Platelets [3] | activity at 0.1 µg/mL [4] [%] | activity at 0.01 µg/mL [4] [%] | activity at 0.001 µg/mL [4] [%] | activity at 0.1 µg/mL [5] [%] | activity at 0.01 µg/mL [5] [%] | activity at 0.001 µg/mL [5] [%] | activity at 1 µg/mL [5] [%]
CCCCCCCCCCCCCCCCCCCCCC[C@@H](O)C(=O)N[C@@H](CO[C@H]1O[C@H](CO)[C@H](O)[C@H](O)[C@H]1O)[C@H](O)CCCCCCCCCCCCCCC [Compound 14, (2S,3R)-1-(α-D-galactopyranosyloxy)-2-[(R)-2-hydroxytetracosanoylamino]-3-octadecanol] | 22.3 ± 6.6 × 10^4 /μl | 10 | 10 | 10 | 9 | 9 | 9 | 9 | 101.6 ± 8.3 × 10^4 /μl | 233 | 141 | 96 | 511 | 132 | 134 | 
CCCCCCCCCCCCCCCCCCCCCCCC(=O)N[C@@H](CO[C@H]1O[C@H](CO)[C@H](O)[C@H](O)[C@H]1O)[C@H](O)[C@H](O)CCCCCCCCCCCCCC [Compound 16, (2S,3S,4R)-1-(α-D-galactopyranosyloxy)-2-tetracosanoylamino-3,4-octadecanediol] | 21.1 ± 6.2 × 10^4 /μl | 10 | 6 | 6 | 6 | 6 | 6 | 6 | 114.7 ± 13.0 × 10^4 /μl | 311 | 204 | 216 | 495 | 152 | 115 | 
CCCCCCCCCCCCCCCCCCCCCCCC(=O)N[C@@H](CO[C@H]1O[C@H](CO)[C@H](O)[C@H](O)[C@H]1O)[C@H](O)[C@H](O)CCCCCCCCCCCCC [Compound 17, (2S,3S,4R)-1-(α-D-galactopyranosyloxy)-2-tetracosanoylamino-3,4-heptadecanediol] | 18.5 ± 4.4 × 10^4 /μl | 10 | 10 | 9 | 9 | 9 | 9 | 9 | 92.1 ± 11.3 × 10^4 /μl | 318 | 233 | 98 | 462 | 149 | 159 | 
CCCCCCCCCCCCCCCCCCCCCCCC(=O)N[C@@H](CO[C@H]1O[C@H](CO)[C@H](O)[C@H](O)[C@H]1O)[C@H](O)[C@H](O)CCCCCCCCCCCC(C)C [Compound 31, (2S,3S,4R)-1-(α-D-galactopyranosyloxy)-16-methyl-2-tetracosanoylamino-3,4-heptadecanediol] | 27.7 ± 5.4 × 10^4 /μl | 10 | 10 | 9 | 9 | 9 | 9 | 9 | 108.0 ± 7.0 × 10^4 /μl |  |  |  | 326 | 104 | 101 | 624
CCCCCCCCCCCCC/C=C/[C@@H](O)[C@H](CO[C@H]1O[C@H](CO)[C@H](O)[C@H](O)[C@H]1O)NC(=O)CCCCCCCCCCCCC [Compound 32, (2S,3R,4E)-1-(α-D-galactopyranosyloxy)-2-tetradecanoylamino-4-octadecen-3-ol] | 16.4 ± 3.2 × 10^4 /μl | 10 | 9 | 4 | 3 | 3 | 3 | 3 | 88.3 ± 4.2 × 10^4 /μl |  |  |  | 405 | 151 | 115 | 871
